Measured values taken from US10717716B2, “1,3,4-oxadiazole derivative compounds as histone deacetylase 6 inhibitor, and the pharmaceutical composition comprising the same” (Chong Kun Dang Pharmaceutical Corp., priority 2015, dated 2020).
Where two headings read alike, the source gives them in different places.

Target: T1, human recombinant HDAC6 (Homo sapiens, UniProt Q9UBN7)
T1 construct: purchased Calbiochem 382180
T1 sequence (Q9UBN7 1-1215): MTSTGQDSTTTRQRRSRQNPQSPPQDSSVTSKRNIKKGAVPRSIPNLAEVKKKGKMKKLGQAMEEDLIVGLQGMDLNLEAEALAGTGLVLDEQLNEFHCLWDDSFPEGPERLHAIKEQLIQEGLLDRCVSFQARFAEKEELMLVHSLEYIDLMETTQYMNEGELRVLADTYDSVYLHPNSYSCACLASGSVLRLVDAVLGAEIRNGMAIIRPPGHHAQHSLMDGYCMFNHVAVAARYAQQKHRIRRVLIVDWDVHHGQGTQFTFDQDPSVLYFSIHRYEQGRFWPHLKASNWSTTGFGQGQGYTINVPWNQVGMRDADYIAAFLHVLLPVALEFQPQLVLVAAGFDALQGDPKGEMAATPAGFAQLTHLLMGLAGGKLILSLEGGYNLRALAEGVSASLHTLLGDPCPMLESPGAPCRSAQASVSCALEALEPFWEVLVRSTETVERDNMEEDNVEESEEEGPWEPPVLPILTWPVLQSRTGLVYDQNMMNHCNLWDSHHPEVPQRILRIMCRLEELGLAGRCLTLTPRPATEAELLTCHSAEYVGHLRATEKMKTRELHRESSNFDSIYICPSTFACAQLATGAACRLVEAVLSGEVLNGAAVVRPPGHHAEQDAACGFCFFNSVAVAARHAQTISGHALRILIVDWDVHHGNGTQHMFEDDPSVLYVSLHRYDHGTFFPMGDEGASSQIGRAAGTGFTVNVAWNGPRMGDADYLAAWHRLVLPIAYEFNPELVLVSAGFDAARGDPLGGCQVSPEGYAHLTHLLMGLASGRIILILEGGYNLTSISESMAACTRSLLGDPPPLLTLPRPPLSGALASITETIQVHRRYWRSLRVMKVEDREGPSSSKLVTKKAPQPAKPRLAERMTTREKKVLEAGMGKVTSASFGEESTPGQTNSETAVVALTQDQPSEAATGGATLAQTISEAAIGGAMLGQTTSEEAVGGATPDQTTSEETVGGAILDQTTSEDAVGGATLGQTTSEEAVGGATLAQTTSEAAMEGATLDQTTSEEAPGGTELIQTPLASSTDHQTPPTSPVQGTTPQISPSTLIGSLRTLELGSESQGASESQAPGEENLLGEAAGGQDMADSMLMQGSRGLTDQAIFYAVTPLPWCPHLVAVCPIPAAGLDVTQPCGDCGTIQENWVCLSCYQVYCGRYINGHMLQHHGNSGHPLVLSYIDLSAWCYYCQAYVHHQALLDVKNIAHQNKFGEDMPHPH
Test: HDAC6 enzyme activity inhibition assay (HDAC Fluorimetric Drug Discovery Kit)
Format: biochemical
Details: for HDAC6 selectivity (fold): HDAC6 over HDAC1; for IC50: human recombinant HDAC6, same protocol as HDAC1
Summary of the method: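 Human recombinant HDAC1 or HDAC6 (0.3 μg) reacted with 10 μM Fluor de Lys-SIRT1 substrate and 5-fold compound dilutions for 60 min at 30 °C. Developer II added for 30 min, fluorescence read at Ex 360/Em 460; IC50 calculated from the readings.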

| SMILES | HDAC6 selectivity (fold) | IC50 (read-out: HDAC6) [nM] | IC50 (HDAC6 (nM)) [nM] |
| --- | --- | --- | --- |
| COc1ccccc1CCN(Cc1ccc(-c2nnc(C(F)F)o2)cc1F)C(=O)N1CCOCC1 [Compound 21557, N-(4-(5-(difluoromethyl)-1,3,4-oxadiazol-2-yl)-2-fluorobenzyl)-N-(2-methoxyphenethyl) morpholine-4-carboxamide] | 41 | 244 |  |
| CN1CCN(C(=O)N(Cc2ccc(-c3nnc(C(F)(F)F)o3)cc2F)c2ccc(F)c(Cl)c2)CC1 [Compound 21564, N-(3-chloro-4-fluorophenyl)-N-(2-fluoro-4-(5-(trifluoromethyl)-1,3,4-oxadiazol-2-yl)benzyl)-4-methylpiperazine-1-carboxamide] | 88 | 113 |  |
| CC(C)(C)OC(=O)N(Cc1ccc(-c2nnc(C(F)F)o2)cc1)c1ccccc1 [Compound 21568, Tert-butyl (4-(5-(difluoromethyl)-1,3,4-oxadiazol-2-yl)benzyl)(phenyl)carbamate] | 42 | 237 |  |
| O=C(Oc1ccccc1)N(Cc1ccc(-c2nnc(C(F)F)o2)cc1)c1ccccc1 [Compound 21569, Phenyl (4-(5-(difluoromethyl)-1,3,4-oxadiazol-2-yl)benzyl)(phenyl)carbamate] | 59 |  | 170 |
| CC(C)COC(=O)N(Cc1ccc(-c2nnc(C(F)F)o2)cc1)c1ccccc1 [Compound 21570, Isobutyl (4-(5-(difluoromethyl)-1,3,4-oxadiazol-2-yl)benzyl)(phenyl)carbamate] | 32 | 309 |  |
| CCCCN(Cc1ccc(-c2nnc(C(F)F)o2)cc1)C(=O)Nc1ccccc1 [Compound 21576, 1-Butyl-1-(4-(5-(difluoromethyl)-1,3,4-oxadiazol-2-yl)benzyl)-3-phenylurea] | 24 | 409 |  |
| CN(C)CCNC(=O)N(Cc1ccc(-c2nnc(C(F)F)o2)cc1)c1ccccc1 [Compound 21577, 1-(4-(5-(Difluoromethyl)-1,3,4-oxadiazol-2-yl)benzyl)-3-(2-(dimethylamino)ethyl)-1-phenylurea] | 152 | 66 |  |
| CCN(CCN(C)C)C(=O)N(Cc1ccc(-c2nnc(C(F)F)o2)cc1)c1ccccc1 [Compound 21578, 1-(4-(5-(Difluoromethyl)-1,3,4-oxadiazol-2-yl)benzyl)-3-(2-(dimethylamino)ethyl)-3-ethyl-1-phenylurea] | 233 | 43 |  |
| CN(C)[C@@H]1CCN(C(=O)N(Cc2ccc(-c3nnc(C(F)F)o3)cc2F)c2ccc(F)c(Cl)c2)C1 [Compound 21584, (R)—N-(3-chloro-4-fluorophenyl)-N-(4-(5-(difluoromethyl)-1,3,4-oxadiazol-2-yl)-2-fluorobenzyl)-3-(dimethylamino)pyrrolidine-1-carboxamide] | 370 | 27 |  |
| CN(CCO)C(=O)N(Cc1ccc(-c2nnc(C(F)F)o2)cc1)c1ccccc1 [Compound 21585, 1-(4-(5-(Difluoromethyl)-1,3,4-oxadiazol-2-yl)benzyl)-3-(2-hydroxyethyl)-3-methyl-1-phenylurea] | 370 | 27 |  |
| O=C(N1CCOCC1)N(Cc1ccc(-c2nnc(C(F)(F)F)o2)cc1)c1ccc(F)c(Cl)c1 [Compound 21594, N-(3-chloro-4-fluorophenyl)-N-(4-(5-(trifluoromethyl)-1,3,4-oxadiazol-2-yl)benzyl)morpholine-4-carboxamide] | 115 | 87 |  |
| Cc1cccc(N(Cc2ccc(-c3nnc(C(F)F)o3)cn2)C(=O)N2CCN(C)CC2)c1 [Compound 21597, N-((5-(5-(difluoromethyl)-1,3,4-oxadiazol-2-yl)pyridin-2-yl)methyl)-4-methyl-N-(m-tolyl)piperazine-1-carboxamide] | 323 | 31 |  |
| Cc1ccc(N(Cc2ccc(-c3nnc(C(F)F)o3)cn2)C(=O)N2CCN(C)CC2)cc1 [Compound 21598, N-((5-(5-(difluoromethyl)-1,3,4-oxadiazol-2-yl)pyridin-2-yl)methyl)-4-methyl-N-(p-tolyl)piperazine-1-carboxamide] | 238 | 42 |  |
| CN1CCN(C(=O)N(Cc2ccc(-c3nnc(C(F)F)o3)cn2)c2ccc(F)cc2)CC1 [Compound 21600, N-((5-(5-(difluoromethyl)-1,3,4-oxadiazol-2-yl)pyridin-2-yl)methyl)-N-(4-fluorophenyl)-4-methylpiperazine-1-carboxamide] | 400 | 25 |  |
| CN(C)[C@H]1CCN(C(=O)N(Cc2ccc(-c3nnc(C(F)F)o3)cn2)c2ccc(F)c(Cl)c2)C1 [Compound 21601, (S)—N-(3-chloro-4-fluorophenyl)-N-((5-(5-(difluoromethyl)-1,3,4-oxadiazol-2-yl)pyridin-2-yl)methyl)-3-(dimethylamino)pyrrolidine-1-carboxamide] | 192 | 52 |  |

The remaining molecules from weak to strong by IC50 (read-out: HDAC6), led by results:

| HDAC6 selectivity (fold) | IC50 (read-out: HDAC6) [nM] | SMILES | IC50 (HDAC6 (nM)) [nM] |
| --- | --- | --- | --- |
| 476 | 21 | O=C(N1CC2(COC2)C1)N(Cc1ccc(-c2nnc(C(F)F)o2)cc1F)c1ccc(F)c(Cl)c1 [Compound 21586, N-(3-chloro-4-fluorophenyl)-N-(4-(5-(difluoromethyl)-1,3,4-oxadiazol-2-yl)-2-fluorobenzyl)-2-oxa-6-azaspiro[3.3]heptane-6-carboxamide] |  |
| 494 | 20 | O=C(N1CCOCC1)N(Cc1ccc(-c2nnc(C(F)F)o2)cc1)c1ccc(F)c(Cl)c1 [Compound 21593, N-(3-chloro-4-fluorophenyl)-N-(4-(5-(difluoromethyl)-1,3,4-oxadiazol-2-yl)benzyl)morpholine-4-carboxamide] |  |
| 500 | 20 | CN1CCN(C(=O)N(Cc2ccc(-c3nnc(C(F)F)o3)cn2)c2cccc(F)c2)CC1 [Compound 21599, N-((5-(5-(difluoromethyl)-1,3,4-oxadiazol-2-yl)pyridin-2-yl)methyl)-N-(3-fluorophenyl)-4-methylpiperazine-1-carboxamide] |  |
| 526 | 19 | O=C(N1CC2(COC2)C1)N(Cc1ccc(-c2nnc(C(F)F)o2)cn1)c1ccccc1 [Compound 21566, N-((5-(5-(difluoromethyl)-1,3,4-oxadiazol-2-yl)pyridin-2-yl)methyl)-N-phenyl-2-oxa-6-azaspiro[3.3]heptane-6-carboxamide] |  |
| 625 | 16 | CN1CCN(C(=O)N(Cc2ccc(-c3nnc(C(F)F)o3)cc2F)c2ccc(F)c(Cl)c2)CC1 [Compound 21565, N-(3-chloro-4-fluorophenyl)-N-(4-(5-(difluoromethyl)-1,3,4-oxadiazol-2-yl)-2-fluorobenzyl)-4-methylpiperazine-1-carboxamide] |  |
| 668 | 15 | CCN1CCN(C(=O)N(Cc2ccc(-c3nnc(C(F)F)o3)cc2F)c2ccc(F)c(Cl)c2)CC1 [Compound 21591, N-(3-chloro-4-fluorophenyl)-N-(4-(5-(difluoromethyl)-1,3,4-oxadiazol-2-yl)-2-fluorobenzyl)-4-ethylpiperazine-1-carboxamide] |  |
| 833 | 12 | CN(C)[C@H]1CCN(C(=O)N(Cc2ccc(-c3nnc(C(F)F)o3)cc2F)c2ccc(F)c(Cl)c2)C1 [Compound 21583, (S)—N-(3-chloro-4-fluorophenyl)-N-(4-(5-(difluoromethyl)-1,3,4-oxadiazol-2-yl)-2-fluorobenzyl)-3-(dimethylamino)pyrrolidine-1-carboxamide] |  |
| 909 | 11 | O=C(N1CCS(=O)(=O)CC1)N(Cc1ccc(-c2nnc(C(F)F)o2)cn1)c1ccc(F)c(Cl)c1 [Compound 21587, N-(3-chloro-4-fluorophenyl)-N-((5-(5-(difluoromethyl)-1,3,4-oxadiazol-2-yl)pyridin-2-yl)methyl)thiomorpholine-4-carboxamide 1,1-dioxide] |  |
